Assay results published in US20230212121A1 (DAEGU-GYEONGBUK MEDICAL INNOVATION FOUNDATION, priority 2020, published 2023).

Legend:
Type in all cases: cell-based
[1] = target: T1, serotonin transporter (SERT) (Homo sapiens, UniProt P31645); assay: Serotonin reuptake inhibition, [3H]-5-HT, HEK-293 cells transfected with 5-HT transporter cDNA; conditions: for Triple reuptake inhibition (Ratio %) SERT: compound 1 μM, [3H]-5-HT, relative to control without compound = 100%, lower value = more inhibition; for IC50: concentration at which Ratio % is 50%, 6 concentrations 1 nM to 1 μM, read-out: Triple reuptake inhibition (IC50, μM) SERT
T1 construct: expressed in transfected cells; host or cells: HEK-293
Description: (§1) In order to evaluate the reuptake inhibitory effect of the compounds of the Examples according to the present invention on serotonin, norepinephrine and dopamine, the experiments below were performed, and the results are shown in Table 17.
(§2) To evaluate the reuptake inhibition effect on dopamine, the dopamine transporter cDNA was transfected using the HEK-293 cell line, and then sub-seeded in a 24 well plate the next day. After removing the medium, each compound of the Examples or Comparative Examples diluted to 1 μM in uptake buffer was added to a concentration of 200 μl/well and cultured at 37° C. for 15 minutes. 100 μl of uptake buffer containing 20-30 nM [3H]-DA was added and cultured at 37° C. for 5 minutes. The reaction solution was quickly removed and washed three times with 1 ml ice-cold uptake buffer. After dissolving the resultant in 1% SDS (0.5 ml), the degree of binding of radioisotope-labeled dopamine to the transporter was measured.
(§3) For norepinephrine (NE) and serotonin (5-HT), the degree of binding of radioisotope-labeled norepinephrine or serotonin to the transporter was measured in the same manner as above, except that cells transfected with NE or 5-HT transporter cDNA were used and [3H]—NE or [3H]-5-HT was used as a substrate.
(§4) In addition, when evaluating the reuptake inhibitory effect on dopamine, norepinephrine, and serotonin, the same method was performed without treating each compound of the Examples or Comparative Examples as a control, the degree of binding of radioisotope-labeled dopamine, norepinephrine, and serotonin to the transporter was measured, and by using this as a reference (100%), the triple reuptake inhibitory effect was evaluated as a relative ratio (Ratio %). That is, in the control group, the binding of dopamine, norepinephrine, and serotonin to transporters is not inhibited, but when each compound of the Examples is treated and thus the binding is inhibited, the Ratio % value decreases.
(§5) Meanwhile, the Ratio % values were compared, and in the case of the compounds of Examples 6, 10, 13, 14, 17, 20, 21, 22, 30, 31, 32, 34, 36, 38, 39, 40, 54, 55, 56, 57, 58 and 73 with excellent reuptake inhibitory effects on dopamine, norepinephrine and serotonin, the concentration at which the Ratio % is 50% was calculated using a total of 6 concentrations (1 nM, 5 nM, 10 nM, 50 nM, 100 nM, and 1 μM) and expressed as IC50.

[2] = target: T2, norepinephrine transporter (NET) (Homo sapiens, UniProt P23975); assay: Norepinephrine reuptake inhibition, [3H]-NE, HEK-293 cells transfected with NE transporter cDNA; conditions: for Triple reuptake inhibition (Ratio %) NET: compound 1 μM, [3H]-NE, relative to control without compound = 100%, lower value = more inhibition; for IC50: concentration at which Ratio % is 50%, 6 concentrations 1 nM to 1 μM, read-out: Triple reuptake inhibition (IC50, μM) NET
T2 construct: expressed in transfected cells; host or cells: HEK-293
Description: as §1, §2, §3, §4, §5

[3] = target: T3, dopamine transporter (DAT) (Homo sapiens, UniProt Q01959); assay: Dopamine reuptake inhibition, [3H]-DA, HEK-293 cells transfected with dopamine transporter cDNA; conditions: for Triple reuptake inhibition (Ratio %) DAT: compound 1 μM, 20-30 nM [3H]-DA, relative to control without compound = 100%, lower value = more inhibition; for IC50: concentration at which Ratio % is 50%, 6 concentrations 1 nM to 1 μM, read-out: Triple reuptake inhibition (IC50, μM) DAT
T3 construct: expressed in transfected cells; host or cells: HEK-293
Description: as §1, §2, §4, §5

T2 sequence (P23975 whole entry, species assumed): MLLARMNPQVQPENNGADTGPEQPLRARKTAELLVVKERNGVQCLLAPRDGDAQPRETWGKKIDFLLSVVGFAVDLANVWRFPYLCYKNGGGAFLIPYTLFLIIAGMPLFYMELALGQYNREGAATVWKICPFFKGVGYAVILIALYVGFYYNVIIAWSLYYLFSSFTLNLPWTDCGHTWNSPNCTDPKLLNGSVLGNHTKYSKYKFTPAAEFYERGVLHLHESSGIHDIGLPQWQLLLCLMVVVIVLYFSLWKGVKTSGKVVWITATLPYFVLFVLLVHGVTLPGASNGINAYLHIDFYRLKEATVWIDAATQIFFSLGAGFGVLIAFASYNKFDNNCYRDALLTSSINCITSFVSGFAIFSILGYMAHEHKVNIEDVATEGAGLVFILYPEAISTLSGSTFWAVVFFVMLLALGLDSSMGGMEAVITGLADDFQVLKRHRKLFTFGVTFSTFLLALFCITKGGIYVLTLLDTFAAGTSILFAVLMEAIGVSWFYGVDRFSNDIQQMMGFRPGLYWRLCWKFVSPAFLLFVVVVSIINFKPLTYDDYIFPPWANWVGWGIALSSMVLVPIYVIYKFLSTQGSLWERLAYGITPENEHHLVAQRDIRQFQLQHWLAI
T1 sequence (P31645 whole entry, species assumed): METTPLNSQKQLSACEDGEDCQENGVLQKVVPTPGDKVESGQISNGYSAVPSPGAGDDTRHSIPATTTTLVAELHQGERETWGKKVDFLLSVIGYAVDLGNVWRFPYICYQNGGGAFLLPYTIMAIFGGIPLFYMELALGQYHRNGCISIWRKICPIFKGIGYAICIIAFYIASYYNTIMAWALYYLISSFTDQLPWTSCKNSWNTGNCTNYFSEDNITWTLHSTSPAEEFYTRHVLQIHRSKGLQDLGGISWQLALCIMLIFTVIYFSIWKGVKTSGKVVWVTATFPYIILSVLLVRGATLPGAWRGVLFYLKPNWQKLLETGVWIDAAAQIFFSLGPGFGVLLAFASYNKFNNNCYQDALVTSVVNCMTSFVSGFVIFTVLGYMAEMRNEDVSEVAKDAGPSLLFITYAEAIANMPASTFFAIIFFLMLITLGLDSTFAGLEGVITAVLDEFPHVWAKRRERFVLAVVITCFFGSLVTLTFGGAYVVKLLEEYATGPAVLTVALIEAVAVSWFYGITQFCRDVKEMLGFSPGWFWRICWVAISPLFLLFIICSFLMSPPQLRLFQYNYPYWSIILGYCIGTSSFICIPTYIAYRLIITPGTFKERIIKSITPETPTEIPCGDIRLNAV
T3 sequence (Q01959 whole entry, species assumed): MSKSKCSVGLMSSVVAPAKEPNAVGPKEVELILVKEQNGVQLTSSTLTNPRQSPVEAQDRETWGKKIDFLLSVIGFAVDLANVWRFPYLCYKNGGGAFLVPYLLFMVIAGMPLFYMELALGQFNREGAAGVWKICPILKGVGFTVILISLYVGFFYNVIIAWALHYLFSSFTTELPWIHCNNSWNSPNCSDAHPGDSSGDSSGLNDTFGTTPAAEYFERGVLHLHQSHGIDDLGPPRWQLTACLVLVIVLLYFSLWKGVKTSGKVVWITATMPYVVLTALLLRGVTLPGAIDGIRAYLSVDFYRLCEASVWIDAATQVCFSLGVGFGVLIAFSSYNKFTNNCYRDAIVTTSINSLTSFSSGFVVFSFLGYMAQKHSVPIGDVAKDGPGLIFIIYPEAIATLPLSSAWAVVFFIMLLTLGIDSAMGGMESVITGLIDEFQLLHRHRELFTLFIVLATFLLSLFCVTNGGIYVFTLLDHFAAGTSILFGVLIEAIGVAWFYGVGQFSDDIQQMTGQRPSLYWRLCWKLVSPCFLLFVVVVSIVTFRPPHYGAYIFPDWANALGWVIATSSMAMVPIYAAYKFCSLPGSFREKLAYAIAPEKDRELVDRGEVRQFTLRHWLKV

Triple reuptake inhibition (Ratio %) SERT [1] [%]	Triple reuptake inhibition (Ratio %) NET [2] [%]	Triple reuptake inhibition (Ratio %) DAT [3] [%]	Molecule	IC50 [1] [µM]	IC50 [2] [µM]	IC50 [3] [µM]
29.78	44.79	15.16	O=S(=O)(NCCCN1CCC(Cc2ccccc2)CC1)c1ccc(-c2ccc(Cl)cc2)cc1 [Example 59, N-(3-(4-benzylpiperidin-1-yl)propyl)-4′-chloro-[1,1′-biphenyl]-4-sulfonamide]	–	–	–
64.15	34.97	80.21	O=S(=O)(NCCN1CCC(Cc2ccccc2)CC1)c1ccc2ccccc2n1 [Example 41, N-(2-(4-benzylpiperidin-1-yl)ethyl)quinolin-2-sulfonamide]	–	–	–
56.50	68.65	61.90	O=S(=O)(NCCCN1CCC(Cc2ccccc2)CC1)c1ccc(-c2ccccc2)cc1 [Example 56, N-(3-(4-benzylpiperidin-1-yl)propyl)-[1,1′-biphenyl]-4-sulfonamide]	0.75	0.641	0.42
45.16	87.27	86.50	O=S(=O)(NCCN1CCN(c2ccc(Cl)cc2)CC1)c1ccc2ccccc2c1 [Example 50, N-(2-(4-(4-chlorophenyl)piperazinyl)ethyl)naphthalen-2-sulfonamide]	–	–	–
32.90	44.79	25.52	O=S(=O)(NCCCCN1CCN(CCCc2ccccc2)CC1)c1ccc(-c2ccccc2)cc1 [Example 78, N-(4-(4-(3-phenylpropyl)piperazin-1-yl)butyl)-[1,1′-biphenyl]-4-sulfonamide]	–	–	–
64.15	34.97	80.21	O=S(=O)(NCCN1CCC(c2ccccc2)CC1)c1ccc2ccccc2c1 [Example 42, N-(2-(4-phenylpiperidin-1-yl)ethyl)naphthalen-2-sulfonamide]	–	–	–
64.15	34.97	80.21	O=S(=O)(NCCCN1CCC(c2ccccc2)CC1)c1cccc2ccccc12 [Example 63]	–	–	–
47.19	64.45	68.53	O=S(=O)(NCCCN1CCN(c2ccc(Cl)cc2)CC1)c1ccc2ccccc2n1 [Example 73, N-(3-(4-(4-chlorophenyl)piperazin-1-yl)propyl)quinolin-2-sulfonamide]	0.102	–	–
47.19	64.45	68.53	O=S(=O)(NCCCN1CCN(c2ccc(Cl)cc2)CC1)c1cccc2ccccc12 [Example 71, N-(3-(4-(4-chlorophenyl)piperazin-1-yl)propyl)naphthalen-1-sulfonamide]	–	–	–
56.73	45.04	89.88	O=S(=O)(NCCCN1CCC(c2ccccc2)CC1)c1ccc2ccccc2n1 [Example 65, N-(3-(4-phenylpiperidin-1-yl)propyl)quinolin sulfonamide]	–	–	–
15.55	14.04	37.93	O=S(=O)(NCCN1CCC(c2ccccc2)CC1)c1ccc(-c2ccccc2)cc1 [Example 44, N-(2-(4-phenylpiperidin-1-yl)ethyl)-[1,1′-biphenyl]-4-sulfonamide]	–	–	–
47.19	64.45	68.53	O=S(=O)(NCCN1CCN(c2ccc(Cl)cc2)CC1)c1ccc(-c2ccccc2)cc1 [Example 52, N-(2-(4-(4-chlorophenyl)piperazin-1-yl)ethyl)-[1,1′-biphenyl]-4-sulfonamide]	–	–	–
30.78	44.79	29.62	COc1ccc(-c2ccc(S(=O)(=O)NCCCN3CCC(Cc4ccccc4)CC3)cc2)cc1 [Example 61, N-(3-(4-benzylpiperidin-1-yl)propyl)-4′-methoxy-[1,1′-biphenyl]-4-sulfonamide]	–	–	–

Molecule	Triple reuptake inhibition (Ratio %) SERT [1] [%]	Triple reuptake inhibition (Ratio %) NET [2] [%]	Triple reuptake inhibition (Ratio %) DAT [3] [%]	IC50 [1] [µM]	IC50 [2] [µM]	IC50 [3] [µM]
CCCCOc1ccc(S(=O)(=O)NCCCN2CCC(Cc3ccc(Cl)cc3)CC2)cc1 [Example 28, 4-butoxy-N-(3-(4-(4-chlorobenzyl)piperidin-1-yl)propyl)benzenesulfonamide]	26.63	64.36	94.53	–	–	–
CCCCOc1ccc(S(=O)(=O)NCCCN2CCC(Cc3ccccc3)CC2)nc1 [Example 35, N-(3-(4-benzylpiperidinyl)propyl)-5-butoxypyridin-2-sulfonamide]	53.08	51.99	16.12	–	–	–
CCCCOc1ccc(S(=O)(=O)N2CCC(c3c[nH]c4ccccc34)CC2)cc1 [Example 5, 3-(1-((4-butoxyphenyl)sulfonyl)piperidin-4-yl)-1H-indole]	106.55	94.03	100.55	–	–	–
N-(3-(4-benzylpiperidin-1-yl)propyl)-4-butoxybenzenesulfineamide [Example 19]	67.86	64.78	57.52	–	–	–
CCCCOc1ccc(S(=O)(=O)NCCN2CCC(c3c[nH]c4ccccc34)CC2)cc1 [Example 6]	29.04	81.97	54.56	0.457	–	1.99
CCCCOc1ccc(S(=O)(=O)NCCCN2CCN(c3cccc(C(F)(F)F)c3)CC2)cc1 [Example 26, 4-butoxy-N-(3-(4-(3-(trifluoromethyl)phenyl)piperazin-1-yl)propyl)benzenesulfonamide]	50.98	93.31	97.83	–	–	–
CCCCOc1ccc(S(=O)(=O)NCCN2CCC(c3c[nH]c4ccc(OC)cc34)CC2)cc1 [Example 8, 4-butoxy-N-(2-(4-(5-methoxy-1H-indol-3-yl)piperidin-1-yl)ethyl)benzenesulfonamide]	98.57	79.30	90.67	–	–	–
O=S(=O)(NCCCN1CCC(Cc2ccccc2)CC1)c1ccc2ccccc2c1 [Example 54, N-(3-(4-benzylpiperidin-1-yl)propyl)naphthalen-2-sulfonamide]	46.95	36.68	45.75	1.94	1.25	0.948
CCCCOc1ccc(S(=O)(=O)NCCCN2CCN(c3ccc(Cl)c(Cl)c3)CC2)cc1 [Example 23, 4-butoxy-N-(3-(4-(3,4-dichlorophenyl)piperazin-1-yl)propyl)benzenesulfonamide]	41.32	83.63	99.56	–	–	–
